According to patent US20110021619A1, “EXTERNAL PREPARATION FOR SKIN CONTAINING FLAVANONE DERIVATIVE” (priority 2006, published 2011):

Tests used:
[1] = system: Normal human fibroblasts; assay: Toxicity of farrerol on fibroblasts, MTT assay (WST-8); format: cell-based; conditions: 24, 48 and 72 hours after addition, any of the concentrations considered
Experimental: 1. Fibroblasts grown to 80% confluency were dispersed with 0.05% Trypsin/EDTA. The dispersant was seeded on 96 wells/plate at a concentration of 3×10^3 cells/well. 2. […] 3. […] 4. Absorbance was measured at a measurement wavelength of 450 nm and a reference wavelength of 650 nm.

[2] = system: Normal human epidermal keratinocytes; assay: Cell proliferation effect of farrerol on keratinocytes (direct evaluation, cell count); format: cell-based; conditions: FIG. 7
Experimental: 3) After 24 hours, 48 hours, and 72 hours from the sample addition, the cells were dispersed with 0.05% Trypsin/EDTA and the number thereof was then counted by a blood cell counter. By the way, in Experiment 1, the evaluation for WST-8 was used as an indicator of the number of cells. Since such a method is provided for indirect evaluation of the number of cells by acting on […] in mitochondria, the present study directly count the number of cells.

[3] = system: epidermal keratinocytes and fibroblasts; assay: Influence on fibroblasts through epidermal keratinocytes, amount of procollagen produced (PIP EIA); format: cell-based, human
Experimental: The method is based on one described in Eming SA et al., Hum. Gene. Ther., 9 (4), 529-39 (1998).
DAY 1: The cells are seeded on a 24-well plate at a cell density of 3×10^4 cells/well. […] DAY 7: The supernatant of the culture is collected.
DAY 3: The cells are seeded on a 24-well plate at a cell density of 2.5×10^4 cells/well. DAY 7: The plate is washed with PBS and the culture supernatant (900 μl) of the epidermal keratinocytes is then added, followed by culturing for 48 hours. DAY 9: The plate is washed with PBS and serum-free DMEM and the medium is then replaced with 500 μl of serum-free DMEM, followed by culturing for 2 hours. The supernatant of the culture is collected and the amount of procollagen in the centrifuged supernatant (15000 rpm, 5 sec.) was then measured depending on the method described below. […]
4) A standard curve was formed by plotting absorbance values at a wavelength of […] while the absorbance of the medium was set to zero as a reference. Then, the PIP concentration was read out from the corresponding absorbance of the test substance.

[4] = system: Normal human fibroblasts; assay: Model of defective dermal tissue with wound (punched collagen gel), Example 6; format: cell-based; conditions: FIG. 4
Experimental: The procedures will be described below. The results are represented in FIG. 4.
1) Normal human fibroblasts grown to 80% confluency were dispersed with 0.05% Trypsin/EDTA. The fibroblasts were seeded at a cell density of 3×10^5 cells/25 cm^2.
3) A collagen gel was prepared by adding a collagen medium solution to the culture obtained by culturing under each of the conditions in a manner similar to Example 2. The prepared collagen gel was then suspension-cultured for 1 week in the same medium as that of the culture condition of (2).
4) When the size of a collagen gel was reduced from one at the time of being prepared by the addition of the collagen medium solution to a size of about ⅕ to 1/10, the center portion of the gel was punched out in a donut form by a disposable biopsy punch with a diameter of 3 mm. As a result, a “wound model” was prepared.
5) A 6-well plate was prepared and 5 μl of collagen was then dropped on the center portion of the well. Subsequently, the collagen gel of the wound model was mounted thereon and incubated at 37° C. for 15 minutes.
6) When the dropped collagen was solidified and the gel was attached to the bottom of the well, 3 ml of the medium with the same condition as that of (3) was added, followed by culturing as a “model of defective dermal tissue with wound”. Subsequently, the process of closing up the wound area of the collagen gel was visually observed.

[5] = system: Normal human fibroblasts; assay: Screening with wound model (punched collagen gel), Example 11; format: cell-based
Experimental: The fractions containing the single ingredients obtained as described above are provided as test substances and the effect of each test substance to construct collagen is then evaluated to screen the substance with a wound-healing effect. The specific procedures will be described later.
Using a “wound model” provided with a defect area formed by punching a collagen gel containing animal fibroblasts, the degree of filling or reduction of the defect area in the presence of a test substance will be observed. The procedures are as follows.
1) Normal human fibroblasts grown to 80% confluency in preculture were dispersed with 0.05% Trypsin/EDTA. The fibroblasts were then seeded on a plate at a cell density of 3×10^5 cells/25 cm^2 (1×10^4 cells/cm^2).
3) A collagen gel was prepared by adding a collagen medium solution to the obtained culture in a manner similar to Example 3. The fibroblasts in the collagen gel were cultured using the medium used in (2). The concentration of the test substance in the medium corresponded to the concentration of the medium of (2).
4) After culturing for 1 week, the size of a collagen gel was reduced from one at the time of being prepared by the addition of the collagen medium solution to a size of about ⅕ to 1/10. Subsequently, the center portion of the collagen gel was punched out in a donut form by a disposable biopsy punch with a diameter of 3 mm. As a result, a “wound model” was prepared.
5) A 6-well plate was prepared and 5 μl of the collagen solution was then dropped on the center portion of the well. Subsequently, the collagen gel of the wound model was mounted thereon and incubated at 37° C. for 15 minutes, allowing the collagen gel to be attached on the bottom of the well.
6) Subsequently, 3 ml of the same medium as that of (2) was added to each of the wells and the fibroblasts in the above-mentioned collagen gel was then cultured for 7 days. During the culture, the process of closing up the wound area of the collagen gel was visually observed.

[6] = system: Normal human fibroblasts; assay: Wound-healing model (punched three-dimensional collagen gel), behavior of fibroblasts; format: cell-based; conditions: 10^−6 ml/ml-DMEM farrerol, after 24 hours, vs farrerol-free group
Source text: 1) The culture of fibroblasts obtained by Protocol 4 of Example 1 and the collagen medium solution were mixed together at a ratio of 1:9 (volume) and then suspension-cultured in a 10%-FBS medium for 1 week.
2) When the size of a collagen gel was reduced from one at the time of being prepared by the addition of the collagen medium solution to a size of about ⅕ to 1/10, the center portion of the gel was punched out by a disposable biopsy punch with a diameter of 3 mm.
3) A 6-well plate was prepared and 15 μl of the collagen solution was then dropped on the center of the well. Subsequently, the punched three-dimensional collagen gel was mounted thereon and incubated for 10 minutes (37° C., 5% CO2).
4) When the dropped collagen was solidified and the three-dimensional collagen gel was attached to the bottom of the well, 10% FBS-DMEM, 0.1% heparin/10% FBS-DMEM, and 1.0% heparin/10% FBS-DMEM were added in a volume of 3 ml/well.

[7] = system: NHDF; assay: Building of collagen fiber bundle in collagen gel with heparin, SEM observation; format: cell-based, human; conditions: 1% heparin at final, 5 days incubation, FIG. 3
Experimental: A collagen solution was prepared by mixture of 0.5% type-I collagen: 5×DMEM: 200 mM HEPES: 2.2% NaHCO3: 0.1 N NaOH: FBS: water at a ratio of 4:4:2:2:1:2:3 (performed while cooling).
A lower-layer collagen solution was prepared by mixing collagen solution with water at a ratio of 9 to 1.
The lower-layer collagen solution was dispensed into the respective wells of a 48-well plate in a volume of 100 μl/well.
The collagen solution was mixed with the cell suspension at a ratio of 9 to 1 (volume) and then dispensed into the respective wells in a volume of 300 μl/well.
The addition of 1.8% Heparin/10% FBS-DMEM was performed in a volume of 500 μl/well (1% Heparin/well at final).
Incubation was carried out in the CO2 incubator (5 days).
A sample for SEM observation was obtained.

[8] = system: Normal human epidermal keratinocytes
Experimental: 1) Normal human epidermal keratinocytes grown to 80% confluency were dispersed with 0.05% Trypsin/EDTA. The dispersant was seeded on 96 wells/plate at a concentration of 3×10^3 cells/well and 6×10^3 cells/well.
4) Absorbance (OD value) was measured at a measurement wavelength of 450 nm and a reference wavelength of 650 nm.

## Cc1c(O)c(C)c2c(c1O)C(=O)CC(c1ccc(O)cc1)O2 (centres unmarked) [farrerol]
[1]
  cytotoxicity: Significant cytotoxicity could not be confirmed
[2]
  cell shape: no change in cell shape
[3]; another system: farrerol added at the time of culturing fibroblasts, then keratinocyte culture supernatant added
  amount of procollagen produced: did not show a large change in amount of procollagen produced
[3]; fibroblasts cultured 48 hours with supernatant of keratinocytes treated with farrerol 10^−6, 10^−7, 10^−8 M, FIG. 8
  amount of procollagen produced: increased significantly depending on the concentration of farrerol
[4]; final concentration of farrerol 10^−5 M
  reduction of punched hole size: promoted clearly
[4]; final concentration of farrerol 10^−6 M
  reduction of punched hole size: promoted clearly
[4]; final concentration of farrerol 10^−7 M
  promotion of reduction of punched hole size: unclear
[5]; compared with the rest of the seven single-ingredient fractions of Hypericum erectum extract
  degree of filling or reduction of the defect area: highest degree of filling or reduction of the defect area
[5]; effective concentration read from defect area reduction
  concentration exerting a wound-healing promoting effect: at least 10^−6 M
[5]; final concentration of farrerol 10^−5 M, FIG. 9
  reduction of the punch hole (defect area): distinctly promoted
[5]; final concentration of farrerol 10^−6 M, FIG. 9
  reduction of the punch hole (defect area): distinctly promoted
[5]; final concentration of farrerol 10^−7 M, FIG. 9
  promotion of reduction of the punch hole (defect area): obscure
[6]; 0.1% heparin/10% FBS-DMEM and 1.0% heparin/10% FBS-DMEM
  movement of fibroblasts from the wound area: no difference in cell movement
[6]; unsupplemented 10% FBS-DMEM, FIG. 2
  movement of fibroblasts from the wound area: longer movement distance of fibroblasts and a more active cellular movement
[7]
  building of a collagen fiber bundle: prevents an inhibitory effect of heparin on the building of a collagen fiber bundle
[8]; dependence on concentration of farrerol, FIG. 5
  OD value (450 nm): increased depending on the concentration of farrerol
[8]; doubled number of seeded cells, 6×10^3 cells/well
  OD value, reproducibility: almost the similar result could be obtained
